Results as given in US5741671A, “Isolation cloning and expression of transmembrane water channel aquaporin 1(AQP1)” (The Johns Hopkins University, priority 1995, dated 1998).
Entries after “also recorded” stand apart in the source; their conditions may differ.

What was measured:
control-injected oocytes = experiment: Xenopus oocyte osmotic swelling assay, control-injected oocytes; format: cell-based, Xenopus laevis; settings: no RNA injected, 0.3 mM HgCl2, 22° C.
Protocol: Expression of AQP1 in Xenopus oocytes. Oocytes were removed from female Xenopus laevis frogs and prepared as described by Dascal (CRC Crit. Rev. Biochem., 1987, 22:317-373). Oocytes were injected with 0.05 microliters of water (control) or the same volume of water containing 1-10 nanograms of AQP1 RNA. The oocytes were incubated for up to 96 hours at 18° C. in modified Barth's buffer (88 mM NaCl, 1 mM KCl, 0.8 mM MgSO4, 0.3 mM Ca(NO3)2, 0.4 mM CaCl2, 2.4 mm NaHCO3, 10 mM HEPES, pH=7.4, total osmolality=200 mOsm/kg) also containing antibiotics. The whole oocytes were then removed and total cellular protein was dissolved in 40 microliters of buffer containing 1% (w/v) SDS and analyzed by immunoblot (Towbin et al., 1979, Proc. Natl. Acad. Sci. USA 76:4350-4354).
A swelling assay was adapted from that of published work (Fischbarg et al., 1990, Proc. Natl. Acad. Sci. USA 87:3244-3247; Zhang et al., 1990, J. Biol. Chem. 265: 15375-15378). […] Swelling was monitored with a Nikon phase-contrast microscope equipped for videorecording. The longest (D1) and shortest (D2) diameters of the oocytes were measured at 15- to 30-second intervals. Oocyte volumes (V) at each time point were calculated relative to volume at the initial observation (Vo): […]

AQP5 = target: T1, AQP5 (Rattus norvegicus, UniProt P47864); experiment: Xenopus oocyte swelling assay, AQP5 (salivary) cRNA-injected oocytes (Example 11); format: cell-based
T1 construct: the entire open reading frame of the salivary cDNA; expressed in transfected cells; host or cells: Xenopus oocytes injected with cRNA from expression construct pXβG
Protocol: Functional Expression in Oocytes-A 1-kb BamHI fragment containing the 5'untranslated sequence and the entire open reading frame of the salivary cDNA was blunt-end-ligated into the BglII site of the Xenopus expression construct pXβG, which contains the HindIII-Pst insert of pSP64T in pBS II KS (Preston et al., 1992, Science, 256:385-387). Capped cRNA was synthesized in vitro after digestion with Xbal (Preston et al., 1993). Defolliculated stage V-VI Xenopus oocytes were injected with 50 nl of water or up to 5 ng of sample cRNAs and incubated for 3 days at 18° C. in 200 mosM modified Barth's buffer. The oocytes were transferred to 70 mosM modified Barth's buffer at 21° C.; oocyte swelling was monitored by videomicroscopy, and the coefficient of osmotic water permeability (Pf) was determined (Preston et al., 1992, 1993). Uptake of [^14 C]urea or [^14 C]glycerol was measured by incubating oocytes in 200 mosM Barth's buffer for 10-20 min at 21° C. followed by washing and SDS solubilization. No increase in ion conductance was found when control oocytes were compared to RNA-injected oocytes by two electrode voltage clamps (Preston et al., 1992). […]

T1 sequence (P47864 whole entry): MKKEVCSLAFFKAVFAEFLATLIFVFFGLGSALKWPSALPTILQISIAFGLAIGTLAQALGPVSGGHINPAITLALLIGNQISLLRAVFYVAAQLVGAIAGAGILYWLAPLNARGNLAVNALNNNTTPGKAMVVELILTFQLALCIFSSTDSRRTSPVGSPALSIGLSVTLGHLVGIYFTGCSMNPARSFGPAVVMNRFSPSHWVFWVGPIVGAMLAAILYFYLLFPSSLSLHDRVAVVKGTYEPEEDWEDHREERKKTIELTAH

## [Cl][Hg][Cl] [HgCl2]
control-injected oocytes
  Pf (osmotic water permeability): 20.3 cm/s x 10^-4
AQP5; 1 mM HgCl2, 5 min
  inhibition of Pf of AQP5-expressing oocytes: comparable reduction; also recorded: reversibly inhibited

## OCCS [β-mercaptoethanol]
AQP5; 5 mM β-mercaptoethanol 30 min after 1 mM HgCl2
  restoration of Pf of AQP5-expressing oocytes after HgCl2: restored
